This note sets out measurements from US20110130370A1, “Pharmaceutical composition comprising a strontium salt, vitamin D and A cyclodextrin” (LES LABORATORIES SERVIER, priority 2009, published 2011).

This series is described as follows: Stability of the vitamin D3+RAMEB complex at 40° C./75% RH in sealed amber glass pill containers. In kind it is physicochemical. How it is done: The stability of the vitamin D3+RAMEB complex of Example 1B at 40° C./75% RH was tested and compare to the stability of: 1) pure vitamin D3, 2) a concentrate of vitamin D3 in powder form (DSM).
The study is carried out in pill containers of sealed amber glass (stopper of type for antibiotics, chlorobutyl, grey, D13—natural aluminium crimp-on cap D20 mm, tear-off lid).

As for `C=C1CC[C@H](O)C/C1=C/C=C1\CCC[C@]2(C)[C@@H]([C@H](C)CCCC(C)C)CC[C@@H]12` [pure vitamin D3, cholecalciferol], the “% vitamin D3” value (t0) is recorded as 98.0%; the “% vitamin D3” value (t0 + 3 weeks, 40° C./75% RH) was 20.3%; the “% vitamin D3” value (t0 + 6 weeks, 40° C./75% RH) is recorded as 23.1%.
